# According to patent publication US5155215A, “Polychelating agents for image and spectral enhancement (and spectral shift)” (priority 1990, dated 1992):
# How the values were obtained:
# [1] = cited from earlier work
# [2] = precipitation at body pH; cited from earlier work
# [3] = In vitro T1 relaxation of water protons (IBM PC 20 Minispectrometer, 20 MHz); assay type: physicochemical
# Description: Microspheres were suspended at a concentration of 1 mg/ml by brief sonification. Because albumin microspheres have a fast-release (surface) component of Gd:DTPA as well as a controlled-release (interior) component, the spheres were washed, resuspended, and diluted serially for testing.
# Thus, it was not necessary to wash and resuspend the materials prior to NMR testing.
# [4] = In vivo NMR enhancement of normal rat tissues, image T1 and enhancement (0.35 Tesla Diasonics); set-up: species or system Sprague-Dawley rats
# Description: Sprague-Dawley rats were imaged using a 0.35-Tesla, Diasonics clinical MR imaging system and a 30-cm rf coil. Three clinically relevant pulse sequences were used: 1) spin-echo with a TR of 0.5 seconds (for T1-weighted images), 2) inversion-recovery (IR) (for T1-weighted images), and 3) spin-echo with a TR of 2.0 seconds (for T2-weighted images). Diasonics software was used to calculate the area-averaged tissue intensities before and after injection of contrast agents. Dual pulse sequences (spin-echo, with TR's of 0.5 and 1.5 seconds or 1.0 and 2.0 seconds) were also used to calculate the in vivo T1 relaxation times. At the conclusion of imaging, the liver, spleen and kidneys were excised and their T1 (IR) and T2 (Carr-Purcell-Meiboom-Gill) relaxation times were determined at 37° C., using an IBM pC20 Minispectroneter. For these in vitro experiments, uninjected rats were used in place of preinjection controls.
# [5] = T1 of freshly excised rat spleens after injection; assay type: in vivo, Sprague-Dawley rats
# Description: Post-contrast images were obtained serially beginning immediately after the i.v. injection of contrast agents and continuing for several hours thereafter.
# [6] = Enhanced T1-weighted blood flow images in cardiac chambers; assay type: in vivo, rats; conditions: i.v., rat heart chambers
# Description: Gd:DTPA-dextran microspheres (at 0.03 mmoles Gd/kg) were injected i.v. at time zero into Sprayer-Dawley rats and images were obtained immediately and serially each 5 minutes×4 (spin-echo, multi-echo, TR=0.5 & 1.5).
# [7] = Liver T1 decrease / liver image enhancement, effective dose; assay type: in vivo, mice and rats; conditions: 30 min
# [8] = Whole-organ liver T1 after albumin microspheres; assay type: in vivo, CBA mice; conditions: 0.1 mmol/kg Gd, 30 min
# Description: Microspheres (Gd:DTPA:dimeglumine:albumin) were tested in vivo by injecting them intravenously into 25 gm CBA mice (2 animals per group), allowing 30 minutes for uptake and sequestration by liver Kupffer cells, sacrificing the mice, and testing the excised organs. […] Radioisotope was quantified in a standard gamma counter.
# The T1-weighted proton relaxation times of mouse livers were quantified by determining the whole-organ T1 relaxation time in a 20 MHz NMR spectrometer.
# [9] = Proton T1 relaxation times in mouse organs (DEAE-dextran agents); assay type: in vivo, CBA mice
# Description: Test materials were injected i.v. into 25 gm CBA mice. At 30 min the mice were sacrificed by decapitation (exsanguination) and the excised livers and kidneys assessed for changes in proton T1 relaxation times (20 MHz; IR pulse sequence). Doses of test materials were made equivalent based on in vitro potency (ID50 analysis).
# [10] = MR imaging and proton T1 relaxation times in rats (DEAE-dextran agents); assay type: in vivo, Sprague-Dawley rats; conditions: Gd 0.30 (polymer, dimeglumine) or 0.15 (microspheres) mmol/kg
# Description: Test materials were injected intravenously into 500 gm Sprague-Dawley rats. at approximately 30 minutes, the rats were placed in the head coil of a 0.35 Tesla clinical imaging device (Diasonics Corp.), and T1-weighted images (using both a spin-echo pulse sequence at TR's of 0.5, 1.5 and 2.0, and an inversion recovery sequence) were obtained on image slices of 0.5 cm thickness taken through the liver and kidneys. T1 relaxation times were determined from the TR=0.5 and 2.0 data using area-averaging of signal intensities and a proprietary software program for calculations. At the completion of imaging, the rats were sacrificed by decapitation (exsanguination). Their livers, kidneys and spleens were excised, tested for in vitro correlations with the in vivo changes in proton T1 relaxation times and then placed in buffered formalin fixative for histopathologic evaluation.
# [11] = cited from earlier work; remark: listed apart in the source
# [12] = system: human brain tumors; renal tumors; conditions: cited from earlier work
# [13] = system: 7777-strain Morris hepatoma; assay: In vivo NMR image enhancement of a primary liver tumor (hepatoma); conditions: after injection
# Description: After two to three weeks the local tumors had reached an average diameter of 0.5 and 1.0 cm. The rats were then imaged both before and after i.v. injections of Gd-DTPA or microsphere Gd-DTPA. MR imaging was performed in a 30cm rf coil with a 0.35 Tesla, Diasonics clinical MRI system (as described above). Post-contrast images were obtained serially beginning immediately after injection and continuing for several hours thereafter.
smiles,measurement,setting,value
"[Gd] [Gd, gadolinium]",Paramagnetic dipole,"[1]; Gd, seven unpaired 4f electrons",7.9 Bohr magnetons
same,Toxicity of the free form,[2],quite toxic
"O=C(O)CN1CCN(CC(=O)O)CCN(CC(=O)O)CCN(CC(=O)O)CC1 [DOTA, 1,4,7,10-tetraazacyclododecane-N,N',N""-tetraacetic acid]",Relaxivity relative to Gd-DTPA,[1]; wide range of Larmor frequencies,approximately 2 times greater
CNC[C@H](O)[C@@H](O)[C@H](O)[C@H](O)CO.CNC[C@H](O)[C@@H](O)[C@H](O)[C@H](O)CO.O=C([O-])CN(CCN(CC(=O)[O-])CC(=O)O)CCN(CC(=O)[O-])CC(=O)O.[Gd+3] [Gd:DTPA dimeglumine],IC50,"[3]; Gd, read-out: ID50 as molar concentration of Gd",90 µM
same,ID50 (total weight),[3]; T1 to 50% of phosphate-buffered saline,84 µg/mL
same,Material concentration required to produce a 50% decrease in the T1 of water protons,[3]; total material,90 µg/mL
same,"% Decrease in T1, kidney (30 min post vs. pre)","[4]; kidney, 30 min, image T1",55.7%
same,Time after which all liver enhancement was lost,[4]; liver,50 min
same,"% Decrease in T1, liver (30 min post vs. pre)","[4]; liver, 30 min, image T1",24.6%
same,Bone marrow image enhancement,[4]; visual inspection,not Gd:DTPA dimeglumine
same,% Decrease in T1 of Spleen (35 min post vs. pre),[5],14.4%
same,Enhancement of blood flow images,[6],almost completely ineffective
same,Change in liver T1's at the usual 30-minute imaging interval,[7],minimal changes in liver T1's
same,"Liver T1, % of Control",[8],98.5%
same,Liver T1,[8]; saline 332,327 ms
same,"T1 (% of control), kidney","[9]; kidney, 30 min, 0.23 mmol/kg DEAE agents, 0.47 mmol/kg Gd:DTPA dimeglumine, control 385 msec",24%
same,"T1 (% of control), liver","[9]; liver, 30 min, 0.23 mmol/kg DEAE agents, 0.47 mmol/kg Gd:DTPA dimeglumine, control 330 msec",83%
same,Effectiveness at decreasing the T1 of liver,"[9]; mouse liver, very high doses",relatively ineffective
same,"T1 (% of control), kidney, in vitro","[10]; excised kidney, control 492 msec",25%
same,"T1 (% of control), liver, in vitro","[10]; excised liver, control 275 msec",88%
same,"T1 (% of control), spleen, in vitro","[10]; excised spleen, control 464 msec",86%
same,"T1 (% of control), kidney, in vivo","[10]; kidney, imaging",57%
same,"T1 (% of control), liver, in vivo","[10]; liver, imaging",83%
same,Bloodstream clearance (1/2),[11]; Weinman et al.,20 min
same,Quantity cleared by the kidneys,[11]; Weinman et al.,> 90%
same,Imaging window,[11]; in vivo,ca. 30 minutes
same,Number of optimal images after each injection,[11]; in vivo,ca. 2
same,Relaxivity at higher proton Larmor frequencies,[1]; typically 15 Mhz,marked decrease in relaxivity
same,Enhancement of renal tumors,"[12]; human, in vivo",enhanced satisfactorily
same,Enhancement of human brain tumors,[12]; preliminary clinical results,almost all human brain tumors undergo significant enhancement
same,Time by which tumor contrast was significantly reduced,[13],1.5 h
